The numbers were not newly measured in patent US8252791B2, “Purine compounds as cannabinoid receptor blockers” (Jenrin Discovery, Inc., priority 2008, dated 2012), which cites them from elsewhere.

For the series the following is noted: patients with type 2 diabetes not treated with other anti-diabetic medications; after six months of treatment; baseline value 7.9; placebo group 0.3%.

Turning to `Cc1c(C(=O)NN2CCCCC2)nn(-c2ccc(Cl)cc2Cl)c1-c1ccc(Cl)cc1` [rimonabant], the HbA1c levels lowered is on record as 0.8%.
